Key:
Assay in all cases: relative viability (nuclei count vs DMSO), 5 days (fraction); higher = more cells survive
Sulindac + Tozasertib = compound: CC1=C(CC(=O)O)c2cc(F)ccc2/C1=C\c1ccc([S+](C)[O-])cc1 [Sulindac] + Cc1cc(Nc2cc(N3CCN(C)CC3)nc(Sc3ccc(NC(=O)C4CC4)cc3)n2)n[nH]1 [Tozasertib] (partner 0.1 µM)
In short: (§1)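 Relative viability divides the nuclei count in treated wells by that in vehicle wells. Lung cancer cell lines were seeded in 1536-well plates, dosed by pin tool the next day, and fixed and stained after 5 days in one step with final 0.05% Triton X-100, 1% formaldehyde and 1 ug/ml Hoechst. Dosing was a single drug or a fixed anchor-drug dose plus five library-drug doses (not always all listed) in √10 steps, and values are medians of duplicate plates imaged at 4×.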

[1] = compound: O=c1[nH]cc(F)c(=O)[nH]1 [5-Fluorouracil] + CC(C)C[C@H](NC(=O)[C@H](Cc1ccccc1)NC(=O)c1cnccn1)B(O)O [Bortezomib] (partner 0.002 µM)
In short: as §1

[2] = compound: O=c1[nH]cc(F)c(=O)[nH]1 [5-Fluorouracil] + CS(=O)(=O)N1CCN(Cc2cc3nc(-c4cccc5[nH]ncc45)nc(N4CCOCC4)c3s2)CC1 [Pictilisib] (partner 1 µM)
In short: as §1

[3] = compound: O=c1[nH]cc(F)c(=O)[nH]1 [5-Fluorouracil] + O=C(c1cc(Cc2n[nH]c(=O)c3ccccc23)ccc1F)N1CCN(C(=O)C2CC2)CC1 [Olaparib] (partner 8 µM)
In short: as §1

| Cell Line | relative viability (Sulindac + Tozasertib; first compound 0.08 µM) | relative viability (Sulindac + Tozasertib; first compound 0.253 µM) | relative viability (Sulindac + Tozasertib; first compound 0.8 µM) | relative viability (Sulindac + Tozasertib; first compound 2.53 µM) | relative viability (Sulindac + Tozasertib; first compound 8 µM) | relative viability ([1]; first compound 0.02 µM) | relative viability ([1]; first compound 0.2 µM) | relative viability ([1]; first compound 0.6325 µM) | relative viability ([1]; first compound 2 µM) | relative viability ([2]; first compound 0.02 µM) | relative viability ([2]; first compound 0.2 µM) | relative viability ([2]; first compound 0.6325 µM) | relative viability ([2]; first compound 2 µM) | relative viability ([3]; first compound 0.02 µM) | relative viability ([3]; first compound 0.2 µM) | relative viability ([3]; first compound 0.6325 µM) | relative viability ([3]; first compound 2 µM) |
| --- | --- | --- | --- | --- | --- | --- | --- | --- | --- | --- | --- | --- | --- | --- | --- | --- | --- |
| COR-L 105 | 0.291 | 0.349 | 0.348 | 0.373 | 0.391 | 0.662 | 0.704 | 0.597 | 0.401 | 0.473 | 0.458 | 0.4 | 0.391 | 0.713 | 0.792 | 0.58 | 0.512 |
| NCI-H2009 | 0.883 | 0.809 | 0.712 | 0.707 | 0.99 | 1.04 | 1.01 | 0.722 | 0.463 | 0.798 | 0.679 | 0.533 | 0.446 | 0.794 | 0.668 | 0.655 | 0.466 |
| NCI-H1437 | 0.438 | 0.434 | 0.32 | 0.397 | 0.429 |  | 0.218 | 0.144 | 0.128 |  | 0.183 | 0.116 | 0.1 | 0.517 | 0.285 | 0.222 | 0.217 |
| PC-3 [JPC-3] | 0.982 | 0.984 | 0.828 | 0.868 | 0.878 | 0.841 | 0.84 | 0.762 | 0.643 | 0.77 | 0.757 | 0.796 | 0.612 | 1.17 | 1.14 | 1.09 | 0.912 |
| NCI-H2085 | 0.789 | 0.842 | 0.829 | 0.797 | 0.807 | 1.09 | 1.13 | 0.995 | 0.738 | 0.461 | 0.504 | 0.445 | 0.507 | 0.743 | 0.784 | 0.693 | 0.677 |
| NCI-H2347 | 0.522 | 0.615 |  | 0.528 | 0.598 | 0.962 | 1.1 | 0.367 | 0.446 | 0.688 | 0.44 | 0.407 | 0.363 | 0.62 | 0.489 | 0.456 | 0.445 |
| ABC-1 | 0.12 | 0.147 | 0.157 | 0.162 | 0.183 | 0.251 | 0.274 | 0.361 | 0.375 | 0.885 | 0.682 | 0.59 | 0.599 | 0.782 | 0.716 | 1 | 0.51 |
| 201T | 1.08 | 0.94 | 0.957 | 0.94 | 0.98 | 1.11 | 1.04 | 0.417 | 0.346 | 0.759 | 0.597 | 0.442 | 0.373 | 0.82 |  | 0.252 | 0.249 |
| NCI-H1755 | 0.52 | 0.586 | 0.573 | 0.593 | 0.694 | 0.975 | 0.442 | 0.397 | 0.311 | 0.453 | 0.5 | 0.301 | 0.184 | 0.817 | 0.665 | 0.374 | 0.319 |
| NCI-H647 | 0.35 | 0.364 | 0.481 | 0.566 | 0.448 | 0.925 | 1.15 | 0.992 | 0.61 | 0.473 | 0.483 | 0.429 | 0.401 | 0.577 | 0.501 | 0.434 | 0.407 |
